Experimental data: the NIST ThermoML archive (doi:10.1021/acs.jced.6b00388)
± gives the expanded uncertainty stated by the source. Values belong to the compound of their own block, whether it stands above or below them.

Settings: Liquid, Ebulliometric method (Recirculating still)

vapor or sublimation pressure (367.43 K): 50 ± 1 kPa | vapor or sublimation pressure (392.75 K): 100 ± 2 kPa
Compound: CC=C(C)C#N [2-methyl-2-butenenitrile]

Compound: CC=CCC#N [3-pentenenitrile]
vapor or sublimation pressure (393.48 K): 50 ± 1 kPa | vapor or sublimation pressure (418.25 K): 100 ± 2 kPa

Compound: C=CC1CC=CCC1 (stereo unspecified) [4-ethenylcyclohexene]
vapor or sublimation pressure (377.75 K): 50 ± 1 kPa | vapor or sublimation pressure (401.42 K): 100 ± 2 kPa
